Laboratory results from paper PMC5218480 (PLoS ONE, 2017).

Test system: MV-4-11 cells
Assay: Gene expression microarray analysis (Affymetrix PrimeView) and GSEA
Format: cell-based, human
Design: RFU PODN (11730768_x_at) / Fold change /veh PODN (11730768_x_at) / RFU LINC00158 (11744669_a_at) / Fold change /veh LINC00158 (11744669_a_at) / RFU DUSP10 (11751237_a_at) / Fold change /veh DUSP10 (11751237_a_at) / RFU ID3 (11757404_x_at) / Fold change /veh ID3 (11757404_x_at) / RFU PLEKHG5 (11737974_s_at) / Fold change /veh PLEKHG5 (11737974_s_at) / RFU LRRC4B (11730491_at) / Fold change /veh LRRC4B (11730491_at) / RFU GIMAP4 (11747438_a_at) / Fold change /veh GIMAP4 (11747438_a_at) / RFU KRT8 (11758183_x_at) / Fold change /veh KRT8 (11758183_x_at) / RFU CNN1 (11734310_a_at) / Fold change /veh CNN1 (11734310_a_at) / RFU VPS37D (11726825_at) / Fold change /veh VPS37D (11726825_at) / RFU C10orf10 (11716522_x_at) / Fold change /veh C10orf10 (11716522_x_at) / RFU KIR2DL2 /// KIR2DL4 /// KIR2DL5A /// KIR2DL5B /// KIR2DS1 /// KIR2DS2 /// KIR2DS3 /// KIR2DS4 /// KIR3DL3 /// KIR3DL3 /// KIR3DS1 (11738374_at) / Fold change /veh KIR2DL2 /// KIR2DL4 /// KIR2DL5A /// KIR2DL5B /// KIR2DS1 /// KIR2DS2 /// KIR2DS3 /// KIR2DS4 /// KIR3DL3 /// KIR3DL3 /// KIR3DS1 (11738374_at) / RFU C1QL1 (11718748_at) / Fold change /veh C1QL1 (11718748_at) / RFU TMPRSS4 (11747572_a_at) / Fold change /veh TMPRSS4 (11747572_a_at) / RFU HAMP (11756126_x_at) / Fold change /veh HAMP (11756126_x_at) / RFU RNFT2 (11725882_a_at) / Fold change /veh RNFT2 (11725882_a_at) / RFU NR4A2 (11747474_a_at) / Fold change /veh NR4A2 (11747474_a_at) / RFU ABCC12 (11746883_a_at) / Fold change /veh ABCC12 (11746883_a_at) / RFU TMEM136 (11760407_x_at) / Fold change /veh TMEM136 (11760407_x_at) / RFU CLDN22 /// WWC2 (11732394_at) / Fold change /veh CLDN22 /// WWC2 (11732394_at) / RFU HLA-DPB1 (11760878_x_at) / Fold change /veh HLA-DPB1 (11760878_x_at) / RFU SPINT1 (11716480_a_at) / Fold change /veh SPINT1 (11716480_a_at) / RFU GAP43 (11754022_s_at) / Fold change /veh GAP43 (11754022_s_at) / RFU A4GNT (11735810_at) / Fold change /veh A4GNT (11735810_at) / RFU PRB3 (11715151_x_at) / Fold change /veh PRB3 (11715151_x_at) / RFU TUBB4B (11761932_at) / Fold change /veh TUBB4B (11761932_at) / RFU CAPN14 (11732068_a_at) / Fold change /veh CAPN14 (11732068_a_at) / RFU TMCC2 (11721928_a_at) / Fold change /veh TMCC2 (11721928_a_at) / RFU IRGQ (11745062_a_at) / Fold change /veh IRGQ (11745062_a_at) / RFU FAM174B (11720279_a_at) / Fold change /veh FAM174B (11720279_a_at) / RFU TMPRSS4 (11748680_a_at) / Fold change /veh TMPRSS4 (11748680_a_at) / RFU FAM212B (11763350_a_at) / Fold change /veh FAM212B (11763350_a_at) / RFU PLEKHG5 (11743358_a_at) / Fold change /veh PLEKHG5 (11743358_a_at) / RFU ZSCAN30 (11745921_a_at) / Fold change /veh ZSCAN30 (11745921_a_at) / RFU CMKLR1 (11741424_a_at) / Fold change /veh CMKLR1 (11741424_a_at) / RFU LOC101060620 /// MAPK8IP1 (11723275_at) / Fold change /veh LOC101060620 /// MAPK8IP1 (11723275_at) / RFU SPTSSB (11747773_x_at) / Fold change /veh SPTSSB (11747773_x_at) / RFU PRSS12 (11739890_at) / Fold change /veh PRSS12 (11739890_at) / RFU BIN1 (11741810_x_at) / Fold change /veh BIN1 (11741810_x_at) / RFU WNT11 (11732464_a_at) / Fold change /veh WNT11 (11732464_a_at) / RFU C10orf10 (11716521_a_at) / Fold change /veh C10orf10 (11716521_a_at) / RFU C5orf56 (11738089_at) / Fold change /veh C5orf56 (11738089_at) / RFU CYB561 (11721691_x_at) / Fold change /veh CYB561 (11721691_x_at) / RFU ANKRD19P (11752326_a_at) / Fold change /veh ANKRD19P (11752326_a_at) / RFU OR2T12 /// OR2T33 /// OR2T8 (11738714_s_at) / Fold change /veh OR2T12 /// OR2T33 /// OR2T8 (11738714_s_at) / RFU VCAN (11748164_a_at) / Fold change /veh VCAN (11748164_a_at) / RFU JSRP1 (11732532_at) / Fold change /veh JSRP1 (11732532_at) / RFU KRTAP10-11 (11738290_x_at) / Fold change /veh KRTAP10-11 (11738290_x_at) / RFU MYO3A (11730013_a_at) / Fold change /veh MYO3A (11730013_a_at) / RFU EBF3 (11725865_a_at) / Fold change /veh EBF3 (11725865_a_at) / RFU CAMK2N1 (11719241_x_at) / Fold change /veh CAMK2N1 (11719241_x_at) / RFU C5orf56 (11738088_a_at) / Fold change /veh C5orf56 (11738088_a_at) / RFU OLFML3 (11715873_a_at) / Fold change /veh OLFML3 (11715873_a_at) / RFU LOC100653217 /// NTM (11731650_a_at) / Fold change /veh LOC100653217 /// NTM (11731650_a_at) / RFU MAPK11 (11762145_a_at) / Fold change /veh MAPK11 (11762145_a_at) / RFU FIZ1 (11724087_x_at) / Fold change /veh FIZ1 (11724087_x_at) / RFU OASL (11726364_x_at) / Fold change /veh OASL (11726364_x_at) / RFU SOX15 (11748057_x_at) / Fold change /veh SOX15 (11748057_x_at) / RFU CD79A (11719716_a_at) / Fold change /veh CD79A (11719716_a_at) / RFU HIST1H1D (11736915_at) / Fold change /veh HIST1H1D (11736915_at) / RFU CASKIN2 (11723855_a_at) / Fold change /veh CASKIN2 (11723855_a_at) / RFU LOC730098 (11760151_x_at) / Fold change /veh LOC730098 (11760151_x_at) / RFU OR4N2 (11742367_at) / Fold change /veh OR4N2 (11742367_at) / RFU PRRT2 (11749266_a_at) / Fold change /veh PRRT2 (11749266_a_at) / RFU SNX32 (11753110_a_at) / Fold change /veh SNX32 (11753110_a_at) / RFU CDHR5 (11726645_a_at) / Fold change /veh CDHR5 (11726645_a_at) / RFU RCAN1 (11760418_a_at) / Fold change /veh RCAN1 (11760418_a_at) / RFU FAM167A (11723789_a_at) / Fold change /veh FAM167A (11723789_a_at) / RFU FAM26E (11764081_at) / Fold change /veh FAM26E (11764081_at) / RFU ISYNA1 (11749810_s_at) / Fold change /veh ISYNA1 (11749810_s_at) / RFU ACY1 (11761880_at) / Fold change /veh ACY1 (11761880_at) / RFU 11764098_at / Fold change /veh 11764098_at / RFU SAMD14 (11745864_x_at) / Fold change /veh SAMD14 (11745864_x_at) / RFU NPB (11741838_a_at) / Fold change /veh NPB (11741838_a_at) / RFU TMPRSS6 (11731388_a_at) / Fold change /veh TMPRSS6 (11731388_a_at) / RFU KRTAP10-2 (11738614_at) / Fold change /veh KRTAP10-2 (11738614_at) / RFU ARHGAP8 /// PRR5-ARHGAP8 (11727945_x_at) / Fold change /veh ARHGAP8 /// PRR5-ARHGAP8 (11727945_x_at) / RFU KRTAP5-7 /// NADSYN1 (11734609_at) / Fold change /veh KRTAP5-7 /// NADSYN1 (11734609_at) / RFU RASL12 (11751679_a_at) / Fold change /veh RASL12 (11751679_a_at) / RFU CDKN2B (11736163_a_at) / Fold change /veh CDKN2B (11736163_a_at) / RFU PRF1 (11729649_at) / Fold change /veh PRF1 (11729649_at) / RFU, ZNF638 /// ZNF638-IT1 / Fold change vs veh, ZNF638 /// ZNF638-IT1 / RFU, PANK3 / Fold change vs veh, PANK3 / RFU, SH3YL1 / Fold change vs veh, SH3YL1 / RFU, ZEB2 / Fold change vs veh, ZEB2 / RFU, NRIP1 / Fold change vs veh, NRIP1 / RFU, PTTG1IP / Fold change vs veh, PTTG1IP / RFU, CAPN2 / Fold change vs veh, CAPN2 / RFU, MED14 / Fold change vs veh, MED14 / RFU, SNORA58 / Fold change vs veh, SNORA58 / RFU, C1orf63 / Fold change vs veh, C1orf63 / RFU, LRRFIP1 / Fold change vs veh, LRRFIP1 / RFU, NDUFAF7 / Fold change vs veh, NDUFAF7 / RFU, SLC12A2 / Fold change vs veh, SLC12A2 / RFU, IBTK / Fold change vs veh, IBTK / RFU, ESF1 / Fold change vs veh, ESF1 / Fold change vs veh, TMEM50B / RFU, TAOK1 / Fold change vs veh, TAOK1 / RFU, ACBD3 / Fold change vs veh, ACBD3 / RFU, TMA16 / Fold change vs veh, TMA16 / RFU, RWDD3 / Fold change vs veh, RWDD3 / RFU, BCAT1 / Fold change vs veh, BCAT1 / RFU, EDEM3 / Fold change vs veh, EDEM3 / RFU, TMEM33 / Fold change vs veh, TMEM33 / RFU, WDR75 / Fold change vs veh, WDR75 / RFU, AHCTF1 / Fold change vs veh, AHCTF1 / RFU, TFRC / Fold change vs veh, TFRC / RFU, ZDHHC17 / Fold change vs veh, ZDHHC17 / RFU, NOM1 / Fold change vs veh, NOM1 / RFU, ARL8B / Fold change vs veh, ARL8B / RFU, ZBTB11 / Fold change vs veh, ZBTB11 / RFU, TAMM41 / Fold change vs veh, TAMM41 / RFU, KIAA1704 /// LOC100996395 / Fold change vs veh, KIAA1704 /// LOC100996395 / RFU, ING1 / Fold change vs veh, ING1 / RFU, TRMT61B / Fold change vs veh, TRMT61B / RFU, FUBP3 / Fold change vs veh, FUBP3 / RFU, TP53 / Fold change vs veh, TP53 / RFU, TNKS2 / Fold change vs veh, TNKS2 / RFU, ZFP14 / Fold change vs veh, ZFP14 / RFU, ACTR2 / Fold change vs veh, ACTR2 / RFU, PPP3R1 / Fold change vs veh, PPP3R1 / RFU, PIK3R1 / Fold change vs veh, PIK3R1 / RFU, HNRNPA1 / Fold change vs veh, HNRNPA1 / RFU, RNF170 / Fold change vs veh, RNF170 / RFU, ZNF28 / Fold change vs veh, ZNF28 / RFU, RNGTT / Fold change vs veh, RNGTT / RFU, OGT / Fold change vs veh, OGT / RFU, BRD1 / Fold change vs veh, BRD1 / RFU, MARS / Fold change vs veh, MARS / RFU, ZNF655 / Fold change vs veh, ZNF655 / RFU, FAHD1 / Fold change vs veh, FAHD1 / RFU, BDP1 / Fold change vs veh, BDP1 / RFU, LRRCC1 / Fold change vs veh, LRRCC1 / RFU, ARID1A / Fold change vs veh, ARID1A / RFU, ZNF146 / Fold change vs veh, ZNF146 / RFU, ZNF330 / Fold change vs veh, ZNF330 / RFU, GPN3 / Fold change vs veh, GPN3 / RFU, C9orf123 / Fold change vs veh, C9orf123 / RFU, N4BP2L2 / Fold change vs veh, N4BP2L2 / RFU, ARFIP1 / Fold change vs veh, ARFIP1 / RFU, FAM179B / Fold change vs veh, FAM179B / RFU, BCL10 / Fold change vs veh, BCL10 / RFU, UHRF1BP1L / Fold change vs veh, UHRF1BP1L / RFU, BET1 / Fold change vs veh, BET1 / RFU, CNOT2 / Fold change vs veh, CNOT2 / RFU, ZNF268 / Fold change vs veh, ZNF268 / Fold change vs veh, ZNF507 / RFU, DGCR2 / Fold change vs veh, DGCR2 / RFU, WDSUB1 / Fold change vs veh, WDSUB1 / Fold change vs veh, HSP90B1 /// MIR3652 / RFU, ADSS / Fold change vs veh, ADSS / RFU, GK / Fold change vs veh, GK / RFU, ZNF148 / Fold change vs veh, ZNF148 / RFU, TAF9 / Fold change vs veh, TAF9 / RFU, SLC1A5 / Fold change vs veh, SLC1A5 / RFU, SLMO2 / Fold change vs veh, SLMO2 / RFU, ABCC4 / Fold change vs veh, ABCC4 / RFU, LOC101060439 /// RAP1B / Fold change vs veh, LOC101060439 /// RAP1B / RFU, RFX7 / Fold change vs veh, RFX7 / RFU, GTPBP10 / Fold change vs veh, GTPBP10 / RFU, CNEP1R1 / Fold change vs veh, CNEP1R1 / RFU, BIVM-ERCC5 /// ERCC5 / Fold change vs veh, BIVM-ERCC5 /// ERCC5 / RFU, ILF3 / Fold change vs veh, ILF3 / RFU 11762660_at / Fold change /veh 11762660_at / RFU VCAN (11757783_s_at) / Fold change /veh VCAN (11757783_s_at) / RFU DDX43 (11728927_at) / Fold change /veh DDX43 (11728927_at) / RFU KRT8 (11758188_x_at) / Fold change /veh KRT8 (11758188_x_at) / RFU NKD1 (11759106_at) / Fold change /veh NKD1 (11759106_at) / RFU SRD5A1 (11742802_a_at) / Fold change /veh SRD5A1 (11742802_a_at) / RFU TPSAB1 /// TPSB2 (11721975_s_at) / Fold change /veh TPSAB1 /// TPSB2 (11721975_s_at) / RFU GSTM3 (11746129_a_at) / Fold change /veh GSTM3 (11746129_a_at) / RFU IL23R (11737362_x_at) / Fold change /veh IL23R (11737362_x_at) / RFU TMEM51 (11727254_a_at) / Fold change /veh TMEM51 (11727254_a_at) / RFU PIWIL2 (11732686_x_at) / Fold change /veh PIWIL2 (11732686_x_at) / RFU ORM1 (11744905_x_at) / Fold change /veh ORM1 (11744905_x_at) / RFU CCDC152 (11743942_at) / Fold change /veh CCDC152 (11743942_at) / RFU ECM1 (11717891_a_at) / Fold change /veh ECM1 (11717891_a_at) / RFU IL23R (11748794_a_at) / Fold change /veh IL23R (11748794_a_at) / RFU TNFAIP8L3 (11732012_x_at) / Fold change /veh TNFAIP8L3 (11732012_x_at) / RFU MBOAT4 (11741988_at) / Fold change /veh MBOAT4 (11741988_at) / RFU 11764193_at / Fold change /veh 11764193_at / RFU TMEM53 (11763286_at) / Fold change /veh TMEM53 (11763286_at) / RFU MAGEB2 (11727129_at) / Fold change /veh MAGEB2 (11727129_at) / RFU TMEM200A (11744735_a_at) / Fold change /veh TMEM200A (11744735_a_at) / RFU CCDC152 (11751479_a_at) / Fold change /veh CCDC152 (11751479_a_at) / RFU FAM211A (11726209_a_at) / Fold change /veh FAM211A (11726209_a_at) / RFU RGS16 (11746705_a_at) / Fold change /veh RGS16 (11746705_a_at) / RFU VCAN (11755009_s_at) / Fold change /veh VCAN (11755009_s_at) / RFU RHOB (11743442_s_at) / Fold change /veh RHOB (11743442_s_at) / RFU RGS16 (11720943_a_at) / Fold change /veh RGS16 (11720943_a_at) / RFU RGS16 (11720944_at) / Fold change /veh RGS16 (11720944_at) / RFU, VPS4B / Fold change vs veh, VPS4B / RFU, CREB1 / Fold change vs veh, CREB1 / RFU, DNAJC13 / Fold change vs veh, DNAJC13 / RFU, GNAQ / Fold change vs veh, GNAQ / RFU, CDK5R1 / Fold change vs veh, CDK5R1 / RFU, ZRANB3 / Fold change vs veh, ZRANB3 / RFU, CUL4A / Fold change vs veh, CUL4A / RFU, CCNY / Fold change vs veh, CCNY / RFU, UFL1 / Fold change vs veh, UFL1 / RFU, COG3 / Fold change vs veh, COG3 / RFU, DIAPH2 / Fold change vs veh, DIAPH2 / RFU, SKA2 / Fold change vs veh, SKA2 / RFU, AFF3 / Fold change vs veh, AFF3 / RFU, LMF1 / Fold change vs veh, LMF1 / RFU, IPO11 / Fold change vs veh, IPO11 / RFU, DFFB / Fold change vs veh, DFFB / RFU, FOXP1 / Fold change vs veh, FOXP1 / RFU, CARD8 / Fold change vs veh, CARD8 / RFU, STRN3 / Fold change vs veh, STRN3 / RFU, ADK / Fold change vs veh, ADK / RFU, RASSF2 / Fold change vs veh, RASSF2 / RFU, WIPF1 / Fold change vs veh, WIPF1 / RFU, LARP1B / Fold change vs veh, LARP1B / RFU, RASA1 / Fold change vs veh, RASA1 / RFU, RB1 / Fold change vs veh, RB1 / RFU, PPFIA1 / Fold change vs veh, PPFIA1 / RFU, MAT2A / Fold change vs veh, MAT2A / RFU, CCT5 / Fold change vs veh, CCT5 / RFU, WDR92 / Fold change vs veh, WDR92 / RFU, CUX1 / Fold change vs veh, CUX1 / RFU, TTC7A / Fold change vs veh, TTC7A / RFU, TMEM135 / Fold change vs veh, TMEM135 / RFU, DEPTOR / Fold change vs veh, DEPTOR / RFU, CPM / Fold change vs veh, CPM / RFU, DNAJB6 / Fold change vs veh, DNAJB6 / RFU, CACNA2D3 / Fold change vs veh, CACNA2D3 / RFU, DTX4 / Fold change vs veh, DTX4 / RFU, TFCP2 / Fold change vs veh, TFCP2 / RFU, GMCL1 /// GMCL1P1 / Fold change vs veh, GMCL1 /// GMCL1P1 / RFU, AEBP2 / Fold change vs veh, AEBP2 / RFU, SNHG1 /// SNORD22 /// SNORD25 /// SNORD26 /// SNORD27 /// SNORD28 /// SNORD29 /// SNORD31 / Fold change vs veh, SNHG1 /// SNORD22 /// SNORD25 /// SNORD26 /// SNORD27 /// SNORD28 /// SNORD29 /// SNORD31 / Fold change (Aza/veh), C12orf56 (ProbeSet 11735607_a_at) / Fold change (ACY-1035/veh), C12orf56 (ProbeSet 11735607_a_at) / Fold change (Aza/veh), FGFR1OP (ProbeSet 11751329_s_at) / Fold change (ACY-1035/veh), FGFR1OP (ProbeSet 11751329_s_at) / Fold change (Aza/veh), VPS36 (ProbeSet 11739960_a_at) / Fold change (ACY-1035/veh), VPS36 (ProbeSet 11739960_a_at) / RFU SYPL1 (11715823_x_at) / Fold change /veh SYPL1 (11715823_x_at) / RFU IGFBP7 (11715501_s_at) / Fold change /veh IGFBP7 (11715501_s_at) / RFU REEP3 (11722064_at) / Fold change /veh REEP3 (11722064_at) / RFU IGLL1 (11728026_x_at) / Fold change /veh IGLL1 (11728026_x_at): dose or concentration left out as unconfirmed
Conditions: MV-4-11 cells, 48 hours

`Nc1ncn([C@@H]2O[C@H](CO)[C@@H](O)[C@H]2O)c(=O)n1` [azacitidine] was tested, and the “Fold change /veh NPB (11741838_a_at)” value was 0.96.
